The source of these data is publication PMC3724117 (British Journal of Pharmacology, 2013).

For one assay, the system named is human ASMC. Kind of assay: Direct effect of drug alone on [Ca2+]i in human ASMC. The format is cell-based.
Assay [1] concerns histamine-evoked Ca^2+ signals. Type of assay: cell-based, human. To be noted: for IC50: Homo sapiens.
For the next assay, the target named is EP2 receptors (Homo sapiens, UniProt P43116). Type of assay: cell-based.
Another assay deals with EP2 receptor. The note with it: 2000, cited from earlier work; for pKD, EP2 receptor: reported affinity, ref Abramovitz et al.
For assay [2], the system named is AC activity. Briefly: cAMP accumulation in human ASMC, 3H-adenine-labelling assay. Type of assay: cell-based. To be noted: read-out: pEC50 for cAMP accumulation (converted). (In general: Changes in cAMP serve as a functional read-out for many G protein-coupled receptors.)
Assay [3] has as its system AC activity. Briefly: cAMP accumulation in human ASMC, HitHunter cAMP HS+ assay. The format is cell-based.
Another assay has as its system EP4 receptor. The note with it: cited from earlier work.
In assay [4] the test system is intracellular Ca^2+ stores. Briefly: Ca2+ content of the intracellular stores of human ASMC. The format is cell-based. To be noted: 2-APB, stores assessed with ionomycin 1 μM.
In a further assay the target is EP4 receptors (Homo sapiens, UniProt P35408). Type of assay: cell-based.
Chain of EP4 receptors (P35408 whole entry): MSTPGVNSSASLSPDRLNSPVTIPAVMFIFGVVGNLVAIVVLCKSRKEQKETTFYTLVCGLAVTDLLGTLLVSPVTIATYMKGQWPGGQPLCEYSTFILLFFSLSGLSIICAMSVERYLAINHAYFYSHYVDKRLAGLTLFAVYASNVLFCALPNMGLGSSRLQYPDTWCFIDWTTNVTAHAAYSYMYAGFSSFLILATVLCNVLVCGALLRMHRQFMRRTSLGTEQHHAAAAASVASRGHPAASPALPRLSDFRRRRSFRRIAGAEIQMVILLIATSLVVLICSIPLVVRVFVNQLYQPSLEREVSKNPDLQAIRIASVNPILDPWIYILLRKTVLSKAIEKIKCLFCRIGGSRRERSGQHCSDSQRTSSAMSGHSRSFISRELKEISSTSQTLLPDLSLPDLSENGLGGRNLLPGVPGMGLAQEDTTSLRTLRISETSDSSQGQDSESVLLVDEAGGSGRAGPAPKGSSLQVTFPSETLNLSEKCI
Where [5] appears, read: read-out: [Ca2+]i, pIC50, Control (converted).

Where two headings read alike, the source gives them in different places.

Chain of EP2 receptors (P43116 whole entry): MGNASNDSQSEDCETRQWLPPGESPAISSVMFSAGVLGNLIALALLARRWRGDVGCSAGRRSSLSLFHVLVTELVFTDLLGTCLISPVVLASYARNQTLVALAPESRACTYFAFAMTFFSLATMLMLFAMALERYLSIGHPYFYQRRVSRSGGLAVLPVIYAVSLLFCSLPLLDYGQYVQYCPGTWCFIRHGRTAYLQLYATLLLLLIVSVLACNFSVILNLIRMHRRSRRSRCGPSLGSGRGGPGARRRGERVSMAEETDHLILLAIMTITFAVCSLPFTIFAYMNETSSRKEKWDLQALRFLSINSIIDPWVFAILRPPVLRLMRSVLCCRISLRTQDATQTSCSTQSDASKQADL

In the case of `Cn1c(=O)c2c(ncn2C)n(C)c1=O` [caffeine], in the assay with human ASMC (caffeine 10 mM), the “effect on [Ca2+]i” value is reported as “no effect”.
`CC(C)OC(=O)CCC/C=C\C[C@@H]1[C@@H](CC[C@@H](O)CCc2ccccc2)[C@H](O)C[C@@H]1O` [latanoprost]: the “effect on histamine-evoked Ca2+ signals” value in assay [1] (latanoprost 100 nM, histamine 3 μM) is listed as “no effect”.
Take `CC(C)Oc1ccc2c(=O)c3cc(C(=O)O)ccc3oc2c1` [AH6809, 6-isopropoxy-9-oxoxanthene-2-carboxylic acid]: the equilibrium dissociation constant (Kd) (as a rule, a measure of binding affinity in units of concentration) on EP2 receptors is 2510 nM. The “pKD, EP2 receptor” value at EP2 receptor was 5.9. Moreover, in [1] (AH6809 30 μM, histamine 3 μM), the “ΔpIC50 (pIC50 control − pIC50 +antagonist) of L902,688” value is recorded as −0.01 ± 0.27, the “ΔpIC50 (pIC50 control − pIC50 +antagonist) of PGE2” value is given as 0.62 ± 0.13 and the “ΔpIC50 (pIC50 control − pIC50 +antagonist) of butaprost” value amounted to 1.12 ± 0.15.
For the compound `CC(C)[C@@]1(O)[C@@H](OC(=O)c2ccc[nH]2)[C@@]2(O)[C@@]3(C)C[C@]4(O)O[C@@]5([C@H](O)[C@@H](C)CC[C@]35O)[C@@]2(O)[C@@]14C` [ryanodine, Ryanodine], in assay [1] (ryanodine 100 μM, 5 min), the “effect on responses to histamine” value was “unaffected”.
As to `COc1ccc2c(c1)c(CC(=O)O)c(C)n2C(=O)c1ccc(Cl)cc1` [indomethacin, Indomethacin], the “effect on histamine-evoked Ca2+ signals” value in assay [1] (indomethacin 10 μM, 5 min) is “nor indomethacin, an inhibitor of cyclooxygenases (Figure 1F), had any effect”.
For `CCCCC[C@H](O)/C=C/[C@H]1[C@H](O)CC(=O)[C@@H]1C/C=C\CCCC(=O)O` [PGE2, Prostaglandin E2], the “effect on [Ca2+]i” value in the assay with human ASMC (PGE2 alone (10 μM)) is on record as “no effect”. In the assay on AC activity [2], the EC50 was 214 nM. Besides, the IC50 in assay [1] (setting [5]) is 0.537 nM.
With `CCCC1([C@H](O)C/C=C/[C@H]2[C@H](O)CC(=O)[C@@H]2CCCCCCC(=O)OC)CCC1` [Butaprost], the “EC50 for cAMP accumulation relative to PGE2 (higher)” value in the assay with AC activity [3] (butaprost vs PGE2) is recorded as roughly 10 fold. Moreover, the “affinity for human EP2 receptors relative to PGE2 (lower)” value in the assay with EP2 receptor (ref Narumiya et al., 1999, Abramovitz et al.) was roughly 20 fold. The “pKD, EP2 receptor” value at EP2 receptor was 7.04. Further, the IC50 in [1] (setting [5]) is 6.03 nM. Moreover, the “difference between functional pIC50 and published binding affinity (pKD)” value in assay [1] (pIC50 8.22 vs pKD 7.04) is “more than 10 fold”.
Turning to `CS(=O)(=O)NC(=O)CCC/C=C\C[C@H]1C(=O)C[C@@H](O)[C@@H]1/C=C/[C@@H](O)COc1ccccc1` [Sulprostone, sulprostone], in assay [1] (sulprostone 1 μM, histamine 3 μM), the “effect on histamine-evoked Ca2+ signals” value is reported as “no effect”.
On to `COc1ccc([C@H]2N[C@H](C(=O)O)Cc3c2[nH]c2ccccc32)cc1CN1CCN(c2ccccc2F)CC1` [trans-Ned-19, (1R,3S)-1-[3-[[4-(2-fluorophenyl)piperazin-1-yl]methyl]-4-methoxyphenyl]-2,3,4,9-tetrahydro-1H-pyrido[3,4-b]indole-3-carboxylic acid], for which, in assay [1] (trans-Ned-19 1 μM, 5 min), the “effect on responses to histamine” value is on record as “unaffected”.
With `O=C1CC[C@H](/C=C/[C@@H](O)C(F)(F)c2ccccc2)N1CCCCCCc1nn[nH]n1` [L902,688, 5-[(1E,3R)-4,4-difluoro-3-hydroxy-4-phenyl-1-buten-1-yl]-1-[6-(2H-tetrazol-5R-yl)hexyl]-2-pyrrolidinone], the “cAMP, pEC50, Control” value in the assay on AC activity [3] (HitHunter HS+ assay, 5 min) is 7.76 ± 0.11 (3) /M. For the same compound, the “affinity for EP4 receptors relative to PGE2 (greater)” value in the assay with EP4 receptor (ref Supporting Information Table S4) is recorded as “approximately twofold”. In addition, the “pKD, EP4 receptor” value at EP4 receptor (reported affinity, ref Young et al., 2004) is 9.4. The “[Ca2+]i, pIC50, Control” value in assay [1] (histamine 3 μM, agonist alone) is on record as 9.52 ± 0.25 (3) /M.
`COc1ccc2c(c1)CC[C@@H]1[C@@H]2CC[C@]2(C)[C@@H](NCCCCCCN3C(=O)CCC3=O)CC[C@@H]12` [U73343, 1-[6-[[(17β)-3-methoxyestra-1,3,5(10)-trien-17-yl]amino]hexyl]-2,5-pyrrolidinedione]: the “effect on Ca2+ signals evoked by histamine” value in [1] (U73343 ≤10 μM, histamine 100 μM) is “no effect”.
For the compound `O=C(O)CCCCCC[C@H]1C(=O)NC(=O)N1CCC(O)C1CCCCC1` (stereo partly drawn) [BW 245C, (4S)-(3-[(3R,S)-3-cyclohexyl-3-hydroxypropyl]-2,5-dioxo)-4-imidazolidineheptanoic acid], the “effect on histamine-evoked Ca2+ signals” value in assay [1] (BW 245C 10 nM, histamine 3 μM) is reported as “no effect”.
With `NCCOB(c1ccccc1)c1ccccc1` [2-APB, 2-aminoethoxydiphenyl borate], the “effect on Ca2+ content of the intracellular stores” value in [4] is on record as “substantial loss”. The “effect on Ca2+ signals evoked by histamine” value in assay [1] (2-APB 5 min before, histamine 3 μM or 1 mM, Ca2+-free HBS) was “concentration-dependent inhibition”.
For `CCOc1c2c(c(OCC)c3ccccc13)C(=O)N(c1ccc(CC(=O)NS(=O)(=O)c3ccccc3)cc1)C2` [GW627368X, 2-[4-(4,9-diethoxy-3-oxo-1H-benzo[f]isoindol-2-yl)phenyl]-N-phenylsulfonylacetamide], the Kd on EP4 receptors was 6.31 nM. Further, in assay [1] (GW627368X 1 μM, histamine 3 μM), the “ΔpIC50 (pIC50 control − pIC50 +antagonist) of L902,688” value was found to be 2.20 ± 0.28, the “ΔpIC50 (pIC50 control − pIC50 +antagonist) of PGE2” value is recorded as 0.24 ± 0.08 and the “ΔpIC50 (pIC50 control − pIC50 +antagonist) of butaprost” value is reported as −0.21 ± 0.14.
Regarding `COc1ccc2c(c1)CC[C@@H]1[C@@H]2CC[C@]2(C)[C@@H](NCCCCCCN3C(=O)C=CC3=O)CC[C@@H]12` [U73122, 1-[6-[[(17β)-3-methoxyestra-1,3,5(10)-trien-17-yl]amino]hexyl]-1H-pyrrole-2,5-dione], in assay [1] (read-out: pIC50 for inhibition of Ca2+ signals evoked by histamine (converted)), the IC50 was 1740 nM.
